We go through five molecules from ChEMBL document CHEMBL1145498, “A systematic interaction map of validated kinase inhibitors with Ser/Thr kinases” (Proc Natl Acad Sci U S A, 2007).

In general, ΔTm refers to the shift of the melting midpoint relative to a reference.

The target in assay [1] is Calcium/calmodulin-dependent protein kinase type 1D (Homo sapiens) (UniProt Q8IU85).
The target in assay [2] is Calcium/calmodulin-dependent protein kinase type II subunit gamma (Homo sapiens) (UniProt Q13555).
The target of assay [3] is T1, Calcium/calmodulin-dependent protein kinase type IV (Homo sapiens) (UniProt Q16566).
T1 sequence (whole entry): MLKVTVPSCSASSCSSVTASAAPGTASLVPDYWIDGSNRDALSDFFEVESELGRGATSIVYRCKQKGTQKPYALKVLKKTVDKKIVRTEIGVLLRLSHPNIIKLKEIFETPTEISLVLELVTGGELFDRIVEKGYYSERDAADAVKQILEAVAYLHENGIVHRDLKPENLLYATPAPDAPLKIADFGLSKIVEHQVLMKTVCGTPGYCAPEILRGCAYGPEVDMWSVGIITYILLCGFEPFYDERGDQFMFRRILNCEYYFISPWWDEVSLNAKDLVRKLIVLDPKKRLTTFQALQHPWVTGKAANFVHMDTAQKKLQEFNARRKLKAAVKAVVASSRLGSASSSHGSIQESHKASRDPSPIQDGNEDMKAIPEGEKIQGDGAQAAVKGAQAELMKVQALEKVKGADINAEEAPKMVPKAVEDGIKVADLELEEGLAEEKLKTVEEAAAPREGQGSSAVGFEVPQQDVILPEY

Assay [4] addresses Cyclin-dependent kinase 2 (Homo sapiens, UniProt P24941).
In assay [5] the target is Serine/threonine-protein kinase Chk2 (Homo sapiens, UniProt O96017).
Sequence of Serine/threonine-protein kinase Chk2 (O96017 whole entry): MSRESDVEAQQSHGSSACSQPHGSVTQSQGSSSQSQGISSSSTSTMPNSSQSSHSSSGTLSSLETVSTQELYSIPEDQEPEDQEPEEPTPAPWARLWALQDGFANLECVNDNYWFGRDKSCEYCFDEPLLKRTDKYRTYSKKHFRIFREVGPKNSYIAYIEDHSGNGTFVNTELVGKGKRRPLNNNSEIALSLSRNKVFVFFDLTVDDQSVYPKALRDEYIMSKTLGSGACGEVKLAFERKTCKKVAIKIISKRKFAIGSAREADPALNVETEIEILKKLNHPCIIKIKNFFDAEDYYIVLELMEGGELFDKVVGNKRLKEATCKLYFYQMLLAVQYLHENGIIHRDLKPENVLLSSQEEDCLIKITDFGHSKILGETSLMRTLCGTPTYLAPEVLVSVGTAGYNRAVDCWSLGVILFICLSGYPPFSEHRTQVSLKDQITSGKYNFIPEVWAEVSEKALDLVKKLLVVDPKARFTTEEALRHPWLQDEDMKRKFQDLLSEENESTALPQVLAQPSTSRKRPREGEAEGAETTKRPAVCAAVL
For assay [6], the target named is Dual specificity mitogen-activated protein kinase kinase 2 (Homo sapiens, UniProt P36507).
Sequence of Dual specificity mitogen-activated protein kinase kinase 2 (P36507 whole entry): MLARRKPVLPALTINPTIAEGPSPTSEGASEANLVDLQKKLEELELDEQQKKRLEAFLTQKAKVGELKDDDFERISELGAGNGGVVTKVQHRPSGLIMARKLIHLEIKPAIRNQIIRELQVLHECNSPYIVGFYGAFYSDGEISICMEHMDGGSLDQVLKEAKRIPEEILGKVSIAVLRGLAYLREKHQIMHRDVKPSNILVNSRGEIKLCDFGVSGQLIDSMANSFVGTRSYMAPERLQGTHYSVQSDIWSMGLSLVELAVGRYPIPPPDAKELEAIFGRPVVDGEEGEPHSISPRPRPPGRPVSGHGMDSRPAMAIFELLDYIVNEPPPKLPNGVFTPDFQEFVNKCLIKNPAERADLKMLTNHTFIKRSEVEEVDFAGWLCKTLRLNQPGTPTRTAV
Assay [7] concerns the target Mitogen-activated protein kinase 11 (Homo sapiens, UniProt Q15759).
For assay [8], the target named is Mitogen-activated protein kinase 3 (Homo sapiens, UniProt P27361).
Sequence of Mitogen-activated protein kinase 3 (P27361 whole entry): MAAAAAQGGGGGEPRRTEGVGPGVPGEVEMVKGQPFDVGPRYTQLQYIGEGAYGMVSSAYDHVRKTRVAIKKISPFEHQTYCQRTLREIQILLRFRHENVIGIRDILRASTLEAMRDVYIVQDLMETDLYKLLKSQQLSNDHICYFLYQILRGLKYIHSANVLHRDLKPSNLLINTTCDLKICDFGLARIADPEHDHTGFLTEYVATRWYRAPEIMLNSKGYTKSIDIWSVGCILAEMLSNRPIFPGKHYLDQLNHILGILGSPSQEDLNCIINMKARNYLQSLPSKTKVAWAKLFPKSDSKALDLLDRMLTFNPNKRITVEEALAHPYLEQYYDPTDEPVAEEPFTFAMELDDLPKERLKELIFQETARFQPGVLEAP
For assay [9], the target named is T2, Serine/threonine-protein kinase Nek2 (Homo sapiens) (UniProt P51955).
T2 sequence (whole entry): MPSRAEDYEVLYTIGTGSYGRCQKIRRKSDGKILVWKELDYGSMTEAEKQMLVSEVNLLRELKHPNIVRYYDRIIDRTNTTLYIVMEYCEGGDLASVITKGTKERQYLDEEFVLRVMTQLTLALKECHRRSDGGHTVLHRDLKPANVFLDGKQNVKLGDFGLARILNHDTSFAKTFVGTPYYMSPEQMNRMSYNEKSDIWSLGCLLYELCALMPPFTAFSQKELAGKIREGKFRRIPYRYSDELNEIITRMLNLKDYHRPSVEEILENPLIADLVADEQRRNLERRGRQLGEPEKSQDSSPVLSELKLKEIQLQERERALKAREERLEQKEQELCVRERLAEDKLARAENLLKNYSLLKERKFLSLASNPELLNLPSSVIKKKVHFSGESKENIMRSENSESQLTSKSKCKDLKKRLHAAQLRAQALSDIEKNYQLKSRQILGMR

Assay [10] has as its target Serine/threonine-protein kinase PAK 6 (Homo sapiens) (UniProt Q9NQU5).
Assay [11] concerns the target Serine/threonine-protein kinase pim-1 (Homo sapiens) (UniProt P11309).
Assay [12] addresses Serine/threonine-protein kinase pim-2 (Homo sapiens, UniProt Q9P1W9).
In assay [13] the target is Serine/threonine-protein kinase RIO2 (Homo sapiens) (UniProt Q9BVS4).
Sequence of Serine/threonine-protein kinase RIO2 (Homo sapiens) (Q9BVS4 whole entry, looked up): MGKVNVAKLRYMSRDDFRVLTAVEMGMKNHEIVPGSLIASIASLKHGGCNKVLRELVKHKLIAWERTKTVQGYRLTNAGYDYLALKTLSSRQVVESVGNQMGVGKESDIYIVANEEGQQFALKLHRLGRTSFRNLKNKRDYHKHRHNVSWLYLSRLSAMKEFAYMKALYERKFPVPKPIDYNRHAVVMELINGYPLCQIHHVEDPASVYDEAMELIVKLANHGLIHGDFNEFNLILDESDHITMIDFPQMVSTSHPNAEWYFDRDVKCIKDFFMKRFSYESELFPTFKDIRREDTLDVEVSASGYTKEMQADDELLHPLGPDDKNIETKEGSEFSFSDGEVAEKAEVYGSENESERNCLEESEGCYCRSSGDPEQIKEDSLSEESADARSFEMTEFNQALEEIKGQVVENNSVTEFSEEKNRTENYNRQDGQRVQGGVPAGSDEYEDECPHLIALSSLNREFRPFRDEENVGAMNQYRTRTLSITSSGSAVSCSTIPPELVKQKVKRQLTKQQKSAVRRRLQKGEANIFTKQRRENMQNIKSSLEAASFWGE
Assay [14] has as its target STE20-like serine/threonine-protein kinase (Homo sapiens) (UniProt Q9H2G2).
The target of assay [15] is Serine/threonine-protein kinase 10 (Homo sapiens) (UniProt O94804).
Sequence of Serine/threonine-protein kinase 10 (Homo sapiens) (O94804 whole entry, looked up): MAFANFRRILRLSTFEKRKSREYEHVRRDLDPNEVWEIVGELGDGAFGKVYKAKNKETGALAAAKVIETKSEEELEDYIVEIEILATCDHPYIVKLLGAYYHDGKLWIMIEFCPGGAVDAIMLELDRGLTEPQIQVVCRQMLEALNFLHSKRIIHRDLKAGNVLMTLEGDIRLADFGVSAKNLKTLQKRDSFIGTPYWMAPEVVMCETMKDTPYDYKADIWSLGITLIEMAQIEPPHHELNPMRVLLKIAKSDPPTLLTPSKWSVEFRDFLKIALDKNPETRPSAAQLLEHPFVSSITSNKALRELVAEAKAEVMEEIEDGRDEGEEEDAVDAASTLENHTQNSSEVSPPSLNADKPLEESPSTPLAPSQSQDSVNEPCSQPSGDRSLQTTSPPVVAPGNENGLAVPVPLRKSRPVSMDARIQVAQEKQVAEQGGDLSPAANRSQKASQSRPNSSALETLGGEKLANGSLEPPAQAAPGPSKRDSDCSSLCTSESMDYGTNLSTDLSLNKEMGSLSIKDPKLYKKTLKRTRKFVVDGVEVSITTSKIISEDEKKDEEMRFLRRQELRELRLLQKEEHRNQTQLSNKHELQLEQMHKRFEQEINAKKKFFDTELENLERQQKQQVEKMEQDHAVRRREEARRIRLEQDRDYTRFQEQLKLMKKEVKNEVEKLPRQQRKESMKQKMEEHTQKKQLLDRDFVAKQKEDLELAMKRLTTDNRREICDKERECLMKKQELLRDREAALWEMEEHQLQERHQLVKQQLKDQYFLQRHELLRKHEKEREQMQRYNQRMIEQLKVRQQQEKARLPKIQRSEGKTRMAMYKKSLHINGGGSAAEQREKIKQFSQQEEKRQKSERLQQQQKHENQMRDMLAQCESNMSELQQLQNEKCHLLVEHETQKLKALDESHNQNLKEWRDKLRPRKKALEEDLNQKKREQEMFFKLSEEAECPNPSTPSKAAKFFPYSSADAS
In assay [16] the target is Serine/threonine-protein kinase 38 (Homo sapiens) (UniProt Q15208).
Sequence of Serine/threonine-protein kinase 38 (Homo sapiens) (Q15208 2-465 limits assumed): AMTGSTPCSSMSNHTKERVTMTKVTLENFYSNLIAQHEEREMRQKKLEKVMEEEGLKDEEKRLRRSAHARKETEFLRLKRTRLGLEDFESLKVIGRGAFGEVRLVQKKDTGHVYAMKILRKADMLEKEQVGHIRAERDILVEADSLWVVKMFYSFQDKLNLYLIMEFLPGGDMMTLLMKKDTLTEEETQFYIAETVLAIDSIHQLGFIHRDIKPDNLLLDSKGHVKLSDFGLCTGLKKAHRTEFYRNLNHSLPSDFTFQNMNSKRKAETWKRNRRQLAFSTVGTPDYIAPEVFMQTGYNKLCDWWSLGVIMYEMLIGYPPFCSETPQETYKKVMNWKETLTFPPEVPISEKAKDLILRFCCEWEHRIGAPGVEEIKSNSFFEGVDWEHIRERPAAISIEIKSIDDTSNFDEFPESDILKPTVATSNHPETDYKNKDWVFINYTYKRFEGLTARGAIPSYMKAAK
The target of assay [17] is Serine/threonine-protein kinase 26 (Homo sapiens) (UniProt Q9P289).
In assay [18] the target is T3, Serine/threonine-protein kinase 4 (Homo sapiens) (UniProt Q13043).
T3 sequence (whole entry): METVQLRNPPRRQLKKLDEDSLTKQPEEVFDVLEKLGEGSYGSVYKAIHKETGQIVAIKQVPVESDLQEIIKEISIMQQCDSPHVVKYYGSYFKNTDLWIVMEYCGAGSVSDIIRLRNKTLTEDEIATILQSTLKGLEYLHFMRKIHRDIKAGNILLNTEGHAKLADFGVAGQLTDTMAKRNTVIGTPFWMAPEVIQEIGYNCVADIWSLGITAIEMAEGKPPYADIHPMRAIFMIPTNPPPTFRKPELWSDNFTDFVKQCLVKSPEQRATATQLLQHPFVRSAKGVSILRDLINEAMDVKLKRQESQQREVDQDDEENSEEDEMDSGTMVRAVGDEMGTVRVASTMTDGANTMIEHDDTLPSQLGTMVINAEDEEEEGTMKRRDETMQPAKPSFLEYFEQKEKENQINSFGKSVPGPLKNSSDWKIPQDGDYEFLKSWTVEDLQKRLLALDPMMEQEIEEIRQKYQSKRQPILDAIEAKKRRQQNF

The target of assay [19] is TRAF2 and NCK-interacting protein kinase (Homo sapiens) (UniProt Q9UKE5).

Sequence of Serine/threonine-protein kinase PAK 6 (Homo sapiens) (Q9NQU5 whole entry, looked up): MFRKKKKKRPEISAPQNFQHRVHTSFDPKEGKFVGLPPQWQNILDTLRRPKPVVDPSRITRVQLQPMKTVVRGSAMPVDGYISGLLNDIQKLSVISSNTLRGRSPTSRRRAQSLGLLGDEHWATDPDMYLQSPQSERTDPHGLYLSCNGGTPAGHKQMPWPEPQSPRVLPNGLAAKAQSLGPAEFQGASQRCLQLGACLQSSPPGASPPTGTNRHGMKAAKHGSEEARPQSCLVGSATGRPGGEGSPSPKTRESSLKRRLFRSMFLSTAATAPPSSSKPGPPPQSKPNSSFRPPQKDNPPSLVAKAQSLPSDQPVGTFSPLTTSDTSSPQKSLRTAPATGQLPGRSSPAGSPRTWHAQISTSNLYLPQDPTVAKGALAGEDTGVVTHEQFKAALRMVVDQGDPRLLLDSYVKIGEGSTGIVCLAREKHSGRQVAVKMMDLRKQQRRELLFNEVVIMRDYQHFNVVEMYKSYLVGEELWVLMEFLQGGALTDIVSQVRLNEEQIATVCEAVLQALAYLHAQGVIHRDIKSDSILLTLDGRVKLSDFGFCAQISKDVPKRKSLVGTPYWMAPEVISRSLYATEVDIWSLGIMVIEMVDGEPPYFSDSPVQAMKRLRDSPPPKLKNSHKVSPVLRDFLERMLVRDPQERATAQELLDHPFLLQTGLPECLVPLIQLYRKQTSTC
Sequence of Serine/threonine-protein kinase pim-1 (Homo sapiens) (P11309 whole entry, looked up): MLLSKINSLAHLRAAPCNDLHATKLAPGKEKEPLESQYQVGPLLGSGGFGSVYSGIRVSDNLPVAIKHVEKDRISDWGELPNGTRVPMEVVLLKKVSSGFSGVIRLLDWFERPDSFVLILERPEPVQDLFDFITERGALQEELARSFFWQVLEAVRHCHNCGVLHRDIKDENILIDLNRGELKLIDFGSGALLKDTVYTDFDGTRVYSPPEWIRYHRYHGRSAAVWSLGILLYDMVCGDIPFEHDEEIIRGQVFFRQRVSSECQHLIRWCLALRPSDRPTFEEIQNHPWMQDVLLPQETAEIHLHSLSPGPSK
Sequence of Mitogen-activated protein kinase 11 (Q15759 whole entry): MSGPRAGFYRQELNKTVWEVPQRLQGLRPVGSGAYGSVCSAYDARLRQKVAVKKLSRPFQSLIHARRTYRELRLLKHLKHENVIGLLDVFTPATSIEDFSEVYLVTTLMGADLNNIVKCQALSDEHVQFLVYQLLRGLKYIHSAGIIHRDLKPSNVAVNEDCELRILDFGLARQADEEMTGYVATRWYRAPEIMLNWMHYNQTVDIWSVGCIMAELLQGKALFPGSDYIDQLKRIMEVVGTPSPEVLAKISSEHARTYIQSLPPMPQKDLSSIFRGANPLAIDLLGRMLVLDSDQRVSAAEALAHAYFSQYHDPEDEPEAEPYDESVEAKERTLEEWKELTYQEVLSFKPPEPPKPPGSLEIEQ
Sequence of Serine/threonine-protein kinase pim-2 (Q9P1W9 whole entry, looked up): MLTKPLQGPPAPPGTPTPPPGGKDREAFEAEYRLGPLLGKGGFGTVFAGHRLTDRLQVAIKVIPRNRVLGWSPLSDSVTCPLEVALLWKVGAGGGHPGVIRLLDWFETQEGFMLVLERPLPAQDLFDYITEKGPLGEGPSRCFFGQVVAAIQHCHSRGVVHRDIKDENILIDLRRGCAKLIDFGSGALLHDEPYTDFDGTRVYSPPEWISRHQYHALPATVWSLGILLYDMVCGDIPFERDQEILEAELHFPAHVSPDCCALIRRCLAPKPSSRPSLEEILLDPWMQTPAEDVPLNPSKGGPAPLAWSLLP

Take `CN(c1cccnc1)c1cc2c(Nc3ccc(F)c(Cl)c3)c(C#N)cnc2cn1`: the ΔTm in [1] is 1.9 °C; in [2] it was 1.9 °C; in [3], -3.4 °C; in assay [4], -0.5 °C; in assay [5] it was 5 °C; in [6], 2.1 °C. Moreover, the shift in melting temperature (ΔTm) in [7] is 0.7 °C; in assay [8] it was -1.9 °C; in assay [9], 0.7 °C; in assay [10], -0.2 °C; in assay [11], 0.1 °C; in assay [12] it was 10.7 °C. Also, the ΔTm is 6.1 °C in [13]; 4.2 °C in assay [14]; 2.8 °C in assay [15]; 0.3 °C in [16]; 0.7 °C in assay [17]; 0.4 °C in assay [18]. Moreover, the ΔTm in assay [19] was -1.2 °C.
In the case of `CC(C)c1nn(-c2c(Cl)cccc2Cl)c2nc(Cc3ccc(OCCO)cc3)[nH]c(=O)c12`, the ΔTm in assay [1] is 0.1 °C; in [2], 0.7 °C; in assay [3] it was -3.4 °C; in assay [4] it was 10.6 °C; in assay [5] it was 3.6 °C; in [6], 0.4 °C. The ΔTm is 0.7 °C in assay [7]; 3.4 °C in assay [8]; 1.5 °C in assay [9]; -0.1 °C in [10]; 0 °C in assay [11]; -0.1 °C in [12]. The thermal shift (ΔTm) is 0.1 °C in [13]; -0.5 °C in [14]; 0.6 °C in [15]; 0.3 °C in assay [16]; 0.5 °C in [17]; 0.1 °C in [18]. The ΔTm in [19] worked out at 0 °C.
On to `COc1cc2ncnc(Nc3ccc(NC(=O)c4ccccc4)cc3)c2cc1OC` [ANILINOQUINAZOLINE1], for which the thermal shift (ΔTm) in [1] was 0.7 °C; in assay [2], 0.2 °C; in assay [3] it was 0.9 °C; in [4], -0.5 °C; in assay [5], 7.3 °C; in [6] it was 0 °C. The ΔTm came to 0.3 °C in [7]; 0.4 °C in assay [8]; 0.3 °C in assay [9]; 0.6 °C in [10]; 0.7 °C in assay [11]; 0.3 °C in [12]. Further, the ΔTm in assay [13] was 0.6 °C; in assay [14], 0.1 °C; in assay [15], 0.1 °C; in [16], 0.9 °C; in [17] it was 0 °C; in assay [18], 0.6 °C. The thermal shift (ΔTm) in [19] was determined as 0.9 °C.
As to `NCCNc1ncc(C(N)=O)c(Nc2cccc(C(F)(F)F)c2)n1`, the ΔTm worked out at 5.1 °C in assay [1]; 1.1 °C in [2]; 0.9 °C in assay [3]; 0.1 °C in [4]; 6.6 °C in assay [5]; 5.1 °C in [6]. Besides, the ΔTm in assay [7] was 2 °C; in [8], 0.9 °C; in assay [9], 0.2 °C; in assay [10] it was 0.9 °C; in [11] it was 5.7 °C; in [12] it was 0.7 °C. In addition, the ΔTm in [13] stood at 4.7 °C; in assay [14], 0.1 °C; in assay [15], 2.8 °C; in assay [16], 2.5 °C; in assay [17], 0.1 °C; in [18], 0.7 °C. Further, the ΔTm in [19] came to 1.3 °C.
As to `Cc1[nH]c(/C=C2\C(=O)Nc3ccc(S(=O)(=O)N(C)c4cccc(Cl)c4)cc32)c(C)c1C(=O)N1CCN(C)CC1`, the ΔTm in [1] is 0.4 °C; in [2] it was 0.6 °C; in assay [3], -0.1 °C; in [4], -0.4 °C; in assay [5], 2.9 °C; in assay [6] it was 1 °C. Moreover, the shift in melting temperature (ΔTm) was 0.1 °C in [7]; 0.1 °C in [8]; 0.1 °C in [9]; 2 °C in assay [10]; -0.2 °C in [11]; 1 °C in assay [12]. Also, the ΔTm is 1.4 °C in assay [13]; 2.4 °C in assay [14]; 1.8 °C in assay [15]; 4.2 °C in [16]; -0.2 °C in [17]; 0.1 °C in assay [18]. For the same molecule, the ΔTm in assay [19] was 0.4 °C.
